According to US9994915B2, “miR-211 expression and related pathways in human melanoma” (Sanford-Burnham Medical Research Institute, priority 2010, dated 2018):

Assays:
Type in all cases: cell-based, human
[1] = test system: A375 melanoma cells; test: cell proliferation (cell counts) of A375 lines; conditions: A375/211
Procedure: The over-expression of KCNMA1 is often associated with both cell proliferation and cell migration/invasion in various cancers. Therefore, the effects of depletion of miR-211 and associated over-expression of KCNMA1 on these process in melanoma cells were determined. Proliferation rates of melanoma cell lines stably transfected with the miR-211 expression cassette were compared with those of untransfected melanoma cells and cell lines transfected with the empty expression vector (FIG. 8A), respectively.
Assays were performed using WM1552C, WM1552C/VO, WM1552C/211(400), WM1552C/211(800), A375, A375/VO, and A375/211 cell lines. Cells were grown in log phase, trypsinized, counted using an automated cell counter (Cellometer®, Nexcelom Bioscience), and then seeded into 75 cm^2 flasks at 5×10^5 cells per flask (in triplicate). Media was changed after 6 hours, and cells were further fed every 48 hours (Complete Tu Media). At days 4, 10, 15, and 21, cells were trypsinized, counted (Cellometer®, Nexcelom Bioscience), and then reseeded. Each assay was performed in duplicate for all cell lines.

[2] = test system: WM1552C melanoma cells; test: Matrigel invasion chamber assay; conditions: 48 hours
Procedure: BD BioCoat™ growth factor reduced insert plates (Matrigel™ Invasion Chamber 12 well plates) were prepared by rehydrating the BD Matrigel™ matrix coating in the inserts with 0.5 mls of serum-free Complete Tu media for two hours at 37° C. The rehydration solution was carefully removed from the inserts, 0.5 ml Complete Tu (2% FBS) was added to the lower wells of the plate, and 2.5×10^4 cells suspended in 0.5 ml of serum-free Complete Tu media were added to each insert well. WM1552C/211(800) cells were additionally transfected with the Anti-miR miRNA Inhibiter for hsa-miR-211 as well as Negative Control #1 (Ambion) (miR-Scramble) at a concentration of 100 nM using siPORT NeoFX (Ambion). […] The number of migrating tumor cells was counted from each of five images per cell line (including miR Inhibiter transfected cells) in the central area of the filter. […] Data are expressed as the percent invasion through the membrane relative to the migration of WM1552C (Wild Type) through the membrane.
The impact of miR-211 expression on the invasive properties of WM1552C. WM1552C/211(400) and WM1552C/211(800) cells, along with WM1552C/VO, WM1552C/KC KO, and untransfected WM1552C was determined. […]
2.5×10^5 cells WM1552C/211(800) cells were seeded into wells of a 6-well plate. […] After 48 hours, the cells were harvested by trypsinization and counted using an automated cell counter (Cellometer®, Nexcelom Bioscience). […]

[3] = test system: A375 melanoma cells; test: oxygen consumption, Seahorse XF96 Analyzer; conditions: miR-211-expressing A375 cells
Procedure: Deep-sequencing (RNA-seq) and proteomics (mass spectrometry) data from two melanoma cell lines A375 and W[…], each expressing miR-211 or the empty vector, were generated. […] Energy consumption was investigated in miR-211-expressing cells. Using the Seahorse XF96 Analyzer, it was determined that miR-211-expressing melanoma cells (A375) consumed nearly double the amount of oxygen as control cells expressing the empty vector (FIG. 35). […] Finally, we measured the level of hypoxia-inducible factor 1 alpha (HIF-1α) in miR-211-expressing cells. HIF-1α expression was reduced by miR-211 expression which is an indication of cellular respiration changes (FIG. 37).

[4] = test system: IGFBP5 mRNA; test: Next Gen sequencing of IGFBP5 mRNA in WM1552C cells
Procedure: To extend the findings of the MITF knock-down study and to further establish IGFBP5 as a miR-211 target, the effect of miR-211 expression on IGFBP5 mRNA was determined. WM1552C cells were transfected with either an empty vector or the vector encoding and expressing miR-211. Additionally, untransfected WM1552C cells were treated with 5-Aza-2′deoxycytidine (“5-Aza”) to investigate whether miR-211 down-regulates IGFBP5 mRNA production through a genomic methylation mechanism.

[5] = test system: IGFBP5 3′UTR; test: luciferase reporter target inhibition assay with IGFBP5 3′UTR; conditions: A375/211 cells
Source text: A putative miR-211 binding site with the sequence 5′-aaagggaa-3′ (SEQ ID NO:40) is present in the 3′-UTR of the IGFBP5 mRNA (SEQ ID NO:41; FIG. 26). In order to investigate the specificity and mechanism of miR-211 inhibition of IGFBP5, three luciferase reporter constructs were created, each having a different 3′-UTR on the luciferase gene. The constructs were as follows: (i) luciferase coding sequence with the luciferase 3′-UTR (“pcDNA6/Luc/NP3”), (ii) luciferase coding sequence with the IGFBP5 3′-UTR (“pcDNA6/Luc/NP3/IGFBP5 3′UTR”), and (iii) luciferase coding sequence with the IGFBP5 3′-UTR having a mutation in the miR-211 binding site (“pcDNA6/Luc/NP3/IGFBP5 3′UTR Mut”). The mutant miR-211 binding site is represented by SEQ ID NO:42 (5′-taagccta-3′). Vectors encoding these constructs were transfected into native A375 cells, A375 cells containing the miR-211-expressing vector (“A375/211”), or A375 cells having an empty vector (“A375/VO”). […] In the miR-211-expressing A375 cells, luciferase expression was unaffected for the constructs containing the native luciferase 3′UTR and the IGFBP5 3′UTR in which the miR-211 binding site had been altered. However, the luciferase activity was reduced by nearly 40% when the native IGFBP5 3′UTR was expressed.

With “miR-211: pre-miR-211 sequence stably expressed from plasmid pcDNA4/miR-211 in melanoma cells; mature sequence UUCCCUUUGUCAUCCUUCGCCU (SEQ ID NO: 15) (listed as Homo sapiens)” the “cell proliferation compared to untransfected A375 or A375/VO” value [1] was “grew more slowly”, the “migrated less than WM1552C (invasion)” value ([2]; WM1552C/211(400)) was roughly 40% and the “migrated less than WM1552C (invasion)” value ([2]; WM1552C/211(800)) was roughly 60%. For the same substance, the “amount of oxygen consumed vs empty vector control cells” value [3] was “nearly double”, the “IGFBP5 mRNA expression” value [4] was “almost to undetectably levels” and the “reduction of luciferase activity” value ([5]; native IGFBP5 3′UTR construct) was roughly 40%. For the same substance, the luciferase expression ([5]; native luciferase 3′UTR or IGFBP5 3′UTR with altered miR-211 binding site) was “unaffected”.
